In patent US20240124422A1, “MUTANT PI3K-ALPHA INHIBITORS AND THEIR USE AS PHARMACEUTICALS” (Prelude Therapeutics Incorporated, priority 2022, published 2024) one finds IC50 data, which are given here for 26 compounds.

The structures appear in SMILES notation.

A word on the IC50: it is the point on the concentration scale where inhibition reaches its midpoint.

The first experiment concerns phosphorylation of AKT on Ser473 as a readout of the PI3K pathway in T-47D (heterozygous PIK3CA H1047R) cells. As to the kind of experiment: PI3K pathway activation assay, pAKT Ser473 HTRF, T-47D cells. It counts as cell-based. The settings on record: Homo sapiens, T47D, 2 h, two hours of treatment. The procedure:
The inhibitory activity of compounds was evaluated by measuring phosphorylation of AKT on Ser473 as a readout of the PI3K pathway using HTRF (CisBio catalog number: 64AKSPE). These studies were conducted in the T-47D (heterozygous PIK3CA H1047R) and SKBR3 (PIK3CA WT) cell lines. Cells were maintained in a 37° C. incubator at 5% CO2 in the following media: T-47D: RPMI 1640, ATCC© Modification (Gibco, A10491-01) supplemented with 10% v/v FBS (Gibco, 26140-079), 1% penicillin streptomycin (Gibco, 15140-122), and 7.4 ug/mL insulin (MilliporeSigma, I9278); SKBR3: McCoy's 5a (Modified) Medium (Gibco, 16600-082) supplemented with 10% v/v FBS (Gibco, 26140-079). Cells were seeded in 384-well plates at a density of 4,000 cells/well. Compounds dissolved in DMSO were added using a digital dispense (D300E, Tecan) 10-point serial dilution. After two hours of treatment, cells were lysed for thirty minutes and then incubated with detection reagents per HTRF kit material and manufacturer's instructions. Fluorescence signal was measured with a multimode plate reader (Envision 2105, Perkin Elmer). Fluorescent signal was normalized to background and DMSO controls to obtain percent inhibition/activity for each compound.
The compound `CCC(Nc1ccccc1C(=O)O)c1cc(C)cc2c(=O)n(C)c(N3CC4CC4C3)nc12` (centres unmarked) [Example 97, 2-((1-(2-(3-azabicyclo[3.1.0]hexan-3-yl)-3,6-dimethyl-4-oxo-3,4-dihydro-quinazolin-8-yl)propyl)amino)benzoic acid] displayed an IC50 of 500 to 10000 nM.
For `Cc1cc(C(C)Nc2ccccc2C(=O)O)c2nc(N3Cc4ccccc4C3)n([C@H]3C[C@H](C#N)C3)c(=O)c2c1` (some centres unmarked) [Example 75, 2-((1-(3-((1r,3r)-3-Cyanocyclobutyl)-2-(isoindolin-2-yl)-6-methyl-4-oxo-3,4-dihydroquinazolin-8-yl)ethyl)amino)benzoic acid], the IC50 was 500 to 10000 nM.
On the same count and under the same terms, the value for `Cc1cc(C(C)Nc2ccccc2C(=O)O)c2nc(N3CCC(O)CC3)n(C)c(=O)c2c1` (centres unmarked) [Example 57, 2-((1-(2-(4-hydroxypiperidin-1-yl)-3,6-dimethyl-4-oxo-3,4-dihydroquinazolin-8-yl)ethyl)amino)benzoic acid] was 500 to 10000 nM; that for `Cc1cc(C(C)Nc2ccccc2C(=O)O)c2nc(N3CCC(F)(F)CC3)n(C)c(=O)c2c1` (single isomer, unassigned) [Example 37, 2-((1-(2-(4,4-difluoropiperidin-1-yl)-3,6-dimethyl-4-oxo-3,4-dihydroquinazolin-8-yl)ethyl)amino)benzoic acid] was under 500 nM; that for `Cc1cc(C(C)Nc2ccccc2C(=O)O)c2nc(N3CC4CC4C3)n(C)c(=O)c2c1F` (single isomer, unassigned) [Example 95, 2-((1-(2-(3-Azabicyclo[3.1.0]hexan-3-yl)-5-fluoro-3,6-dimethyl-4-oxo-3,4-dihydroquinazolin-8-yl)ethyl)amino)benzoic acid] was under 500 nM.
For the compound `CC(Nc1ccccc1C(=O)O)c1cc(C#N)cc2c(=O)n(C)c(N3Cc4ccccc4C3)nc12` (centres unmarked) [Example 50, 2-((1-(6-cyano-2-(isoindolin-2-yl)-3-methyl-4-oxo-3,4-dihydroquinazolin-8-yl)ethyl)amino)benzoic acid], the IC50 lay in the range of 500 to 10000 nM.
`Cc1cc(C(C)Nc2ccccc2C(=O)O)c2nc(N3C4CCC3CC4)n(C)c(=O)c2c1` (centres unmarked) [Example 111, 2-[1-[2-(7-azabicyclo[2.2.1]heptan-7-yl)-3,6-dimethyl-4-oxoquinazolin-8-yl]ethylamino]benzoic acid] yielded an IC50 of under 500 nM.
In the case of `Cc1cc(C(C)Nc2ccccc2C(=O)O)c2nc(N3CCCC34CC4)n(C)c(=O)c2c1` (centres unmarked) [Example 114, 2-((1-(3,6-dimethyl-4-oxo-2-(4-azaspiro[2.4]heptan-4-yl)-3,4-dihydroquinazolin-8-yl)ethyl)amino)benzoic acid], the IC50 is 500 to 10000 nM.
As to `Cc1cc(C(C)Nc2ccccc2C(=O)O)c2nc(N3C[C@H]4CCC[C@H]4C3)n(C)c(=O)c2c1` (stereo partly drawn) [Example 113, 2-[1-[3,6-dimethyl-4-oxo-2-[(3aR,6aS)-3,3a,4,5,6,6a-hexahydro-1H-cyclopenta[c]pyrrol-2-yl]quinazolin-8-yl]ethylamino]benzoic acid], the IC50 was under 500 nM.
`Cc1cc(C(Nc2ccccc2C(=O)O)C(F)(F)F)c2nc(N3CC4CC4C3)n(C)c(=O)c2c1` (centres unmarked) [Example 47, 2-[[1-[2-(3-azabicyclo[3.1.0]hexan-3-yl)-3,6-dimethyl-4-oxoquinazolin-8-yl]-2,2,2-trifluoroethyl]amino]benzoic acid] had an IC50 of 500 to 10000 nM.
In turn, `Cc1cc(C(C)Nc2ncccc2C(=O)O)c2nc(N3Cc4ccccc4C3)n(C)c(=O)c2c1` (centres unmarked) [Example 36, 2-((1-(2-(isoindolin-2-yl)-3,6-dimethyl-4-oxo-3,4-dihydroquinazolin-8-yl)ethyl)amino)nicotinic acid] registered an IC50 of 500 to 10000 nM.
Regarding `Cc1cc(C(C)Nc2ccccc2C(=O)O)c2nc(N3CCN(C(=O)c4ccc(C)nc4)CC3)n(C)c(=O)c2c1` (centres unmarked) [Example 94, 2-((1-(3,6-Dimethyl-2-(4-(6-methylnicotinoyl)piperazin-1-yl)-4-oxo-3,4-dihydro-quinazolin-8-yl)ethyl)amino)benzoic acid], the IC50 was under 500 nM.
Turning to `Cc1cc(C(C)Nc2ccccc2C(=O)O)c2nc(N3CCCC3(C)C)n(C)c(=O)c2c1` (centres unmarked) [Example 115, 2-((1-(2-(2,2-dimethylpyrrolidin-1-yl)-3,6-dimethyl-4-oxo-3,4-dihydroquinazolin-8-yl)ethyl)amino)benzoic acid], the IC50 was under 500 nM.
The compound `Cc1cc(C(C)Sc2ccccc2C(=O)O)c2nc(N3Cc4ccccc4C3)n(C)c(=O)c2c1` (centres unmarked) [Example 13, 2-((1-(2-(isoindolin-2-yl)-3,6-dimethyl-4-oxo-3,4-dihydroquinazolin-8-yl)ethyl)thio)benzoic acid] showed an IC50 of 500 to 10000 nM.
Regarding `Cc1cc(C(C)Nc2ccccc2C(=O)O)c2nc(N3CCC(C#N)CC3)n(C)c(=O)c2c1` (centres unmarked) [Example 44, 2-((1-(2-(4-cyanopiperidin-1-yl)-3,6-dimethyl-4-oxo-3,4-dihydroquinazolin-8-yl)ethyl)amino)benzoic acid], the IC50 lay in the range of 500 to 10000 nM.
For the compound `Cc1cc(C(C)Nc2ccccc2C(=O)O)c2nc(N3CCC(c4ccccc4)C3)n(C)c(=O)c2c1` (single isomer, unassigned) [Example 52, 2-[1-[3,6-dimethyl-4-oxo-2-(3-phenylpyrrolidin-1-yl)quinazolin-8-yl]ethylamino]benzoic acid], the IC50 lay in the range of 500 to 10000 nM.
For `Cc1cc(C(C)Nc2ccccc2C(=O)O)c2nc(N3CC4CC(C4)C3)n(C)c(=O)c2c1` (centres unmarked) [Example 116, 2-((1-(2-(3-Azabicyclo[3.1.1]heptan-3-yl)-3,6-dimethyl-4-oxo-3,4-dihydroquinazolin-8-yl)ethyl)amino)benzoic acid], the IC50 was under 500 nM.
In turn, `Cc1cc(C(C)Nc2ccccc2C(=O)O)c2nc(N3CC4(C3)CC(F)(F)C4)n(C)c(=O)c2c1` (centres unmarked) [Example 109, 2-[1-[2-(6,6-difluoro-2-azaspiro[3.3]heptan-2-yl)-3,6-dimethyl-4-oxoquinazolin-8-yl]ethylamino]benzoic acid] returned an IC50 of under 500 nM.
For `Cc1cc(C(C)Nc2ccccc2C(=O)O)c2nc(N3CCN(C(=O)C4CCCC4)CC3)n(C)c(=O)c2c1` (centres unmarked) [Example 91, 2-((1-(2-(4-(Cyclopentanecarbonyl)piperazin-1-yl)-3,6-dimethyl-4-oxo-3,4-dihydroquinazolin-8-yl)ethyl)amino)benzoic acid], the IC50 was under 500 nM.
Consider `Cc1cc(C(C)Nc2cc(F)ncc2C(=O)O)c2nc(N3CC4CC4C3)n(C)c(=O)c2c1` (centres unmarked) [Example 125, 4-((1-(2-(3-Azabicyclo[3.1.0]hexan-3-yl)-3,6-dimethyl-4-oxo-3,4-dihydroquinazolin-8-yl)ethyl)amino)-6-fluoronicotinic acid], for which the IC50 fell in the range of 500 to 10000 nM.

Still in this experiment, the particulars now being: two hours of treatment, read-out: T47D pAKT IC50.
Turning to `Cc1cc(C(C)Nc2ccccc2C(=O)O)c2nc(N3C[C@@H]4C(C(=O)N5CCC[C@@H]5C)[C@@H]4C3)n(C)c(=O)c2c1` (stereo partly drawn) [Example 85, 2-((1-(3,6-Dimethyl-2-((1R,5S,6R)-6-((S)-2-methylpyrrolidine-1-carbonyl)-3-azabicyclo[3.1.0]hexan-3-yl)-4-oxo-3,4-dihydroquinazolin-8-yl)ethyl)amino)benzoic acid], the IC50 was under 500 nM.
As for `Cc1cc(C(C)Nc2ccccc2C(=O)O)c2nc(N3C[C@@H]4[C@H](C3)[C@H]4C(=O)N3CCOC[C@@H]3C)n(C)c(=O)c2c1` (stereo partly drawn) [Example 86, 2-((1-(3,6-Dimethyl-2-((1R,5S,6R)-6-((S)-3-methylmorpholine-4-carbonyl)-3-azabicyclo[3.1.0]hexan-3-yl)-4-oxo-3,4-dihydroquinazolin-8-yl)ethyl)amino)benzoic acid], the IC50 was under 500 nM.
On to `Cc1cc(C(C)Nc2ccccc2C(=O)O)c2nc(N3C[C@@H]4C(NC(=O)OCCN5CCOCC5)[C@@H]4C3)n(C)c(=O)c2c1` (stereo partly drawn) [Example 61, 2-((1-(3,6-dimethyl-2-((1R,5S,6s)-6-(((2-morpholinoethoxy)carbonyl)amino)-3-azabicyclo[3.1.0]hexan-3-yl)-4-oxo-3,4-dihydroquinazolin-8-yl)ethyl)amino)benzoic acid], for which the IC50 lay in the range of 500 to 10000 nM.
The same measure, in the same setting: next, `Cc1cc(C(C)Nc2ccccc2C(=O)O)c2nc(N3C[C@@H]4C(NC(=O)OCc5ccccc5)[C@@H]4C3)n(C)c(=O)c2c1` (stereo partly drawn) [Example 59, 2-((1-(2-((1R,5S,6s)-6-(((benzyloxy)carbonyl)amino)-3-azabicyclo[3.1.0]hexan-3-yl)-3,6-dimethyl-4-oxo-3,4-dihydroquinazolin-8-yl)ethyl)amino)benzoic acid]: 500 to 10000 nM; `COc1ccc(OC(=O)NC2[C@H]3CN(c4nc5c(C(C)Nc6ccccc6C(=O)O)cc(C)cc5c(=O)n4C)C[C@@H]23)cc1` (stereo partly drawn) [Example 62, 2-((1-(2-((1R,5S,6s)-6-(((4-methoxyphenoxy)carbonyl)amino)-3-azabicyclo[3.1.0]hexan-3-yl)-3,6-dimethyl-4-oxo-3,4-dihydroquinazolin-8-yl)ethyl)amino)benzoic acid]: 500 to 10000 nM; `Cc1cc(C(C)Nc2ccccc2C(=O)O)c2nc(N3C[C@@H]4[C@H](C3)[C@H]4NC(=O)OCC3CCCO3)n(C)c(=O)c2c1` (stereo partly drawn) [Example 64, 2-((1-(3,6-dimethyl-4-oxo-2-((1R,5S,6s)-6-((((tetrahydrofuran-2-yl)methoxy)carbonyl)amino)-3-azabicyclo[3.1.0]hexan-3-yl)-3,4-dihydroquinazolin-8-yl)ethyl)amino)benzoic acid]: 500 to 10000 nM.
